Here are results for 11 compounds from ChEMBL document CHEMBL1201862, “PubChem BioAssay data set” (2004).

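Dose response: 5 concentrations. Exposure: 48 h. Format: 96-well plates. Endpoint: linear interpolation; highest concentration if not reached. GI50 is the concentration that inhibits growth by half.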 Active and inactive are the calls of the source. Rule as the data show it: active = GI50 up to about 1.1 µM and inactive = higher.

Some test systems named below: Hs-578T; SF-539; OVCAR-8; SK-OV-3; T47D; SF-268; MOLT-4; UACC-257; HCC 2998; ACHN; RXF 393; NCI/ADR-RES; LOX IMVI; RPMI-8226; SK-MEL-2; Malme-3M; SR; KM12; CCRF-CEM.
Common to all, as to test: NCI-60 cell line screen, 48 h

In the case of `O=[N+]([O-])c1ccc(-c2nc3cc([N+](=O)[O-])ccc3[nH]2)cc1`, the GI50 in the experiment on Hs-578T is 40.5 µM (inactive); in the experiment with SF-539 it was 23.5 µM (inactive); in the experiment with OVCAR-8, 22.4 µM (inactive); in the experiment with SK-OV-3 it was 34.1 µM (inactive); with T47D, 15.5 µM (inactive); with SF-268, 44.9 µM (inactive). Moreover, the GI50 in the experiment on MOLT-4 is 29.9 µM (inactive); with UACC-257, 31 µM (inactive); in the experiment on HCC 2998, 50.2 µM (inactive); with ACHN, 31 µM (inactive); in the experiment on RXF 393, 63.7 µM (inactive); with NCI/ADR-RES it was 17.6 µM (inactive). For the same compound, the GI50 with LOX IMVI is 26.5 µM (inactive); in the experiment on RPMI-8226, 13.7 µM (inactive); with SK-MEL-2, 23.6 µM (inactive); in the experiment with Malme-3M it was 31.3 µM (inactive); in the experiment with SR, 29 µM (inactive); in the experiment on KM12, 24.8 µM (inactive).

Consider `OC(c1cc(C(F)(F)F)nc2c(Cl)cc(Cl)cc12)C1CCCCN1` (stereo not given), for which the GI50 with Hs-578T is > 22.4 µM (inactive); in the experiment on SF-539 it was 14 µM (inactive); in the experiment with OVCAR-8, 13.2 µM (inactive); in the experiment with SK-OV-3, 12.3 µM (inactive); with T47D, 5.65 µM (inactive); in the experiment with SF-268, 16.8 µM (inactive). Moreover, the GI50 is 6.38 µM (inactive) with MOLT-4; > 100 µM (inactive) in the experiment with HCC 2998; > 24.4 µM (inactive) in the experiment with ACHN; 4.8 µM (inactive) in the experiment on RXF 393; 10.5 µM (inactive) with NCI/ADR-RES; 2.93 µM (inactive) in the experiment with LOX IMVI. The GI50 with RPMI-8226 is 1.95 µM (inactive); in the experiment with SK-MEL-2 it was > 23.3 µM (inactive); in the experiment on CCRF-CEM, 1.27 µM (inactive); with SR, 1.66 µM (inactive); in the experiment on KM12 it was 6.3 µM (inactive).

Turning to `Nc1nc(N)c2cc(Sc3ccc4nc(N)nc(N)c4c3)ccc2n1`, the GI50 was > 100 µM (inactive) in the experiment on Hs-578T; > 100 µM (inactive) in the experiment with SF-539; 0.181 µM (active) in the experiment with OVCAR-8; > 100 µM (inactive) in the experiment with SK-OV-3; > 44.2 µM (inactive) in the experiment with T47D; 0.136 µM (active) with SF-268. In addition, the GI50 in the experiment with MOLT-4 is 0.0524 µM (active); in the experiment on UACC-257 it was > 100 µM (inactive); with HCC 2998, 0.558 µM (active); with ACHN, 0.493 µM (active); with RXF 393 it was > 100 µM (inactive); with NCI/ADR-RES it was > 31.6 µM (inactive). The GI50 with LOX IMVI was 0.0408 µM (active); with RPMI-8226 it was 4.89 µM (inactive); with SK-MEL-2, > 100 µM (inactive); in the experiment on CCRF-CEM it was 0.0194 µM (active); in the experiment on SR, > 100 µM (inactive); in the experiment with KM12, 2.15 µM (inactive).

On to `Cc1cccc(/C=N\NC(=S)N2CCCCC2)n1`, for which the GI50 was 26.5 µM (inactive) in the experiment on Hs-578T; 0.156 µM (active) with SF-539; 0.036 µM (active) in the experiment with OVCAR-8; 0.685 µM (active) in the experiment on SK-OV-3; < 0.01 µM (active) with T47D; 0.0451 µM (active) in the experiment on SF-268. Besides, the GI50 is < 0.01 µM (active) in the experiment on MOLT-4; < 0.01 µM (active) in the experiment on UACC-257; 9.77 µM (inactive) in the experiment with HCC 2998; 0.159 µM (active) in the experiment on ACHN; 0.145 µM (active) with RXF 393; 0.0205 µM (active) with NCI/ADR-RES. Also, the GI50 with LOX IMVI was 0.0681 µM (active); with RPMI-8226, 0.0128 µM (active); in the experiment on SK-MEL-2, 0.612 µM (active); in the experiment on CCRF-CEM it was < 0.01 µM (active); in the experiment with Malme-3M, 0.867 µM (active); in the experiment with SR, 0.019 µM (active). The GI50 in the experiment on KM12 is 0.13 µM (active).

On to `O=C1CC(=O)c2c(O)cc(O)c(c2O)-c2c(ccc(O)c2O)C2=CC(=O)c3c(O)cc(O)c(c3O2)-c2c1ccc(O)c2O.O=C1CC2(O)Oc3c1c(O)cc(O)c3-c1c(ccc(O)c1O)-c1cc(=O)c3c(O)cc(O)c(c3o1)-c1c2ccc(O)c1O`, for which the GI50 in the experiment with Hs-578T, in the experiment with SF-539, in the experiment with OVCAR-8, in the experiment on SK-OV-3, in the experiment on T47D and with SF-268 was > 50 µM (inactive) each time. Also, the GI50 in the experiment on MOLT-4, with UACC-257, with HCC 2998, in the experiment with RXF 393, in the experiment on NCI/ADR-RES and in the experiment with LOX IMVI was > 50 µM (inactive) in each case. The GI50 in the experiment with SK-MEL-2, in the experiment on CCRF-CEM, in the experiment on Malme-3M and in the experiment with SR was > 50 µM (inactive) each time.

Consider `COC12COC(=O)C1C(c1ccc3c(c1)OCO3)c1cc3c(cc1O2)OCO3` (stereo not given), for which the GI50 is 19.5 µM (inactive) with Hs-578T; 10.7 µM (inactive) with SF-539; 26.1 µM (inactive) with OVCAR-8; 14.2 µM (inactive) with SK-OV-3; 24.2 µM (inactive) with T47D; 27.9 µM (inactive) in the experiment with SF-268. The GI50 with MOLT-4 is 7.11 µM (inactive); with UACC-257, 27.9 µM (inactive); in the experiment on HCC 2998, 15.6 µM (inactive); with ACHN it was 29.1 µM (inactive); in the experiment on RXF 393, 10.3 µM (inactive); in the experiment on NCI/ADR-RES it was 5.3 µM (inactive). For the same compound, the GI50 in the experiment with LOX IMVI was 12.8 µM (inactive); in the experiment on RPMI-8226, 14.4 µM (inactive); in the experiment on SK-MEL-2, 17.6 µM (inactive); in the experiment on CCRF-CEM, 8.57 µM (inactive); in the experiment on Malme-3M, 40.7 µM (inactive); in the experiment with SR it was 5.38 µM (inactive). Moreover, the GI50 in the experiment on KM12 is 7.91 µM (inactive).

Regarding `COc1ccc2c3c1OC1C(F)C=CC4(O)C(C2)NCCC314` (stereo not given), the GI50 is 2.62 µM (inactive) in the experiment on Hs-578T; 1.94 µM (inactive) in the experiment with OVCAR-8; 2.92 µM (inactive) with SK-OV-3; 0.753 µM (active) with T47D; 2.59 µM (inactive) in the experiment on SF-268; 0.887 µM (active) in the experiment with MOLT-4. In addition, the GI50 in the experiment on UACC-257 was 11.1 µM (inactive); with HCC 2998, 3.18 µM (inactive); with ACHN, 2.65 µM (inactive); with RXF 393 it was 1.62 µM (inactive); with NCI/ADR-RES, 3.94 µM (inactive); in the experiment with LOX IMVI, 2.31 µM (inactive). Moreover, the GI50 with RPMI-8226 is 0.834 µM (active); in the experiment with SK-MEL-2 it was 2.38 µM (inactive); with CCRF-CEM it was 0.348 µM (active); with Malme-3M, 1.97 µM (inactive); in the experiment on SR it was 0.92 µM (active); with KM12, 3.33 µM (inactive).

Regarding `COC(=O)c1cc2c(cc1CC(Cc1ccc3c(c1)CCC3)C(=O)OC)CCC2` (stereo not given), the GI50 with Hs-578T is 66.2 µM (inactive); in the experiment on SF-539, 35 µM (inactive); with OVCAR-8 it was > 100 µM (inactive); in the experiment on SK-OV-3, 60.1 µM (inactive); in the experiment with T47D it was 26.8 µM (inactive); in the experiment with SF-268, 54.6 µM (inactive). For the same compound, the GI50 in the experiment with MOLT-4 was 26.9 µM (inactive); in the experiment on UACC-257, 13.7 µM (inactive); in the experiment with HCC 2998 it was 34.5 µM (inactive); in the experiment with ACHN, 45.7 µM (inactive); in the experiment with RXF 393 it was 18.1 µM (inactive); in the experiment with NCI/ADR-RES, 57.5 µM (inactive). Moreover, the GI50 with LOX IMVI was 40.6 µM (inactive); with RPMI-8226 it was 16.5 µM (inactive); in the experiment on SK-MEL-2, 44.1 µM (inactive); in the experiment on CCRF-CEM, 29.1 µM (inactive); in the experiment with Malme-3M it was 41.3 µM (inactive); in the experiment on SR, 11 µM (inactive). Further, the GI50 in the experiment with KM12 was 46.1 µM (inactive).

Take `C/C(=N\Nc1nc2ccccc2[nH]1)c1cccc[n+]1[O-]`: the GI50 in the experiment on Hs-578T, in the experiment on SF-539, in the experiment with OVCAR-8, with SK-OV-3, in the experiment with T47D and with SF-268 was > 100 µM (inactive) in each case. Also, the GI50 with MOLT-4 is > 100 µM (inactive); with UACC-257, > 100 µM (inactive); in the experiment with HCC 2998, 6.55 µM (inactive); in the experiment with ACHN, 71 µM (inactive); in the experiment on RXF 393, 45.2 µM (inactive); with NCI/ADR-RES, 38.5 µM (inactive). Besides, the GI50 with LOX IMVI was 56.6 µM (inactive); in the experiment on RPMI-8226, > 100 µM (inactive); in the experiment on SK-MEL-2 it was > 100 µM (inactive); in the experiment with CCRF-CEM it was > 100 µM (inactive); with Malme-3M it was 52.7 µM (inactive); with SR it was 30.1 µM (inactive). In addition, the GI50 in the experiment on KM12 is 44.7 µM (inactive).

For the compound `CC(C)(C)[Si](C)(C)OCC1OC(n2cnc3c(NC(=O)c4ccccc4)ncnc32)CC1O` (stereo not given), the GI50 was 19.2 µM (inactive) in the experiment with Hs-578T; 23.3 µM (inactive) in the experiment with SF-539; 39.3 µM (inactive) in the experiment on OVCAR-8; 23.2 µM (inactive) in the experiment on SK-OV-3; 30.2 µM (inactive) in the experiment with T47D; 64.4 µM (inactive) in the experiment with SF-268. Also, the GI50 in the experiment on MOLT-4 was 19 µM (inactive); in the experiment with UACC-257, 39.5 µM (inactive); with HCC 2998, 27.7 µM (inactive); in the experiment with ACHN, 31.4 µM (inactive); in the experiment with RXF 393 it was 22.3 µM (inactive); in the experiment with NCI/ADR-RES, 38.9 µM (inactive). Further, the GI50 with LOX IMVI was 18.7 µM (inactive); in the experiment with RPMI-8226, 21.8 µM (inactive); in the experiment on SK-MEL-2, 27.2 µM (inactive); with CCRF-CEM, 22.4 µM (inactive); in the experiment with Malme-3M, 30.5 µM (inactive); in the experiment on SR it was 25.1 µM (inactive). Also, the GI50 in the experiment with KM12 is 34.7 µM (inactive).

In the case of `c1ccc(C(NC2=NCCO2)C2CC2)cc1` (stereo not given), the GI50 in the experiment with Hs-578T was > 100 µM (inactive); in the experiment with SF-539, 32.3 µM (inactive); in the experiment with OVCAR-8 it was > 100 µM (inactive); in the experiment with SK-OV-3, > 100 µM (inactive); in the experiment on T47D, > 100 µM (inactive); with SF-268, > 100 µM (inactive). Further, the GI50 in the experiment on MOLT-4, with UACC-257, in the experiment with HCC 2998, in the experiment on ACHN, with RXF 393 and in the experiment with NCI/ADR-RES was > 100 µM (inactive) each time. Also, the GI50 with LOX IMVI, with RPMI-8226, with SK-MEL-2, in the experiment on Malme-3M, in the experiment with SR and with KM12 was > 100 µM (inactive) in each case.
